Measured values reported in patent EP0462621A2, “Use of particular compounds for manufacture of pharmaceutical formulations for treatment against various parasites, mycoplasmas, other indications and other infections” (Prendergast, Patrick Thomas, priority 1990, dated 1991).

Legend:
L donovani [1] = test: Amastigote-promastigote (AM-PRO) transformation, in-vitro; type: cell-based; details: Ld.
L donovani [2] = test: Amastigotes (AM) in mouse or human macrophages (mos), in-vitro; type: cell-based; details: Ld., Amastigote
From the text: (§1) Amastigotes of Leishmania can be cultivated in a wide range of mammalian cells, some of which may be used in in-vitro screens. These include (1) a Sticker dog sarcoma (fibroblast) cell line, (2) transformed rodent macrophage cell lines, (3) primary isolated mouse peritoneal macrophages (MP mo), and (4) human monocyte-derived macrophages (HM mo). The methods are similar for all models. Amastigote or promastigote infected cells are maintained in a medium containing the drug for 4-7 days, at 37 C for L. donovani and 33-35 C for L. major and L. mexicana. Drug activity is then assessed by counting (I) the number of infected host cells and/or (II) the number of amastigotes/100 host cells.
(§2) In-vitro and in-vivo models were used to test activities of a selection of many compounds. Those activities are summarized in Tables 1-3, showing variation between systems and species. Activities measured in the MP mo and HM mo models have shown the best correlation with results obtained in hamster and mouse models.

L major/L mexicana [3] = test: as above; type: cell-based; details: Lm., Amastigote
From the text: as §1, §2

L donovani [4] = test: Leishmania mouse/hamster models, in-vivo; details: Ld. Also: key: - no/poor activity,; + fair/moderate activity,; ++ good/excellent activity.
From the text: as §2

L major/L mexicana [5] = test: Leishmania mouse/hamster models, in-vivo; details: Lm. Also: key: - no/poor activity,; + fair/moderate activity,; ++ good/excellent activity.
From the text: as §2

T. cruzi [6] = test: T. cruzi epimastigote (EPI) in-vitro screen; type: cell-based
Protocol: (§4) In-vitro chemotherapy screens have for many years used models involving three stages of the T. cruzi life cycle: • (1) Epimastigote. Dividing populations are easily cultivated in a range of defined and semi-defined media, but are equivalent to a vector stage of the life cycle. • (2) Trypomastigote. These are isolated from a rodent host and can be maintained as a non-dividing population for 24-48 h in media. • (3) Amastigote. Dividing populations can be cultivated in muscle cells, fibroblasts and macrophages, following infection with trypomastigotes. After the initial infection, there is normally a period of 4-5 days during which the amastigotes divide before transforming, via the epimastigote stage, back to trypomastigotes which escape from the cell. Drug activity is measured during this 4-5 day period. A dividing host cell population, low infection rate, and the presence of trypomastigotes in the overlay can complicate the interpretation of results.

T. cruzi [7] = test: T. cruzi trypomastigote (TRY) in-vitro screen; type: cell-based
Protocol: as §4

T. cruzi [8] = test: T. cruzi mouse model, in-vivo
From the text: as §2

[9] = test system: T.b. brucei, T.b. gambiense and T.b. rhodesiense; test: Procyclic trypomastigote (TRY) in-vitro screen; type: cell-based; also: key: - no/poor activity,; + fair/moderate activity,; ++ good/excellent activity
Protocol: (§3) Primary screening for new trypanocides has made extensive use of rodent systems, in which host survival time is a simple indicator of drug activity. In-vitro screens have used a variety of trypomastigote types (see Table 3, below). […] Most early in-vitro screens employed a short test in which bloodstream trypomastigotes were isolated from an infected rodent and maintained for up to 24 h in a simple drug-containing media. Two significant modifications of this technique include maintaining isolated bloodstream trypomastigotes in drug-containing media for 3-4 hours at 37° C in micro-titre plates and their subsequent viability assessed by the uptake of radiolabelled precursors or motility and infectivity to mice.
as §2

[10] = test system: T.b. brucei, T.b. gambiense and T.b. rhodesiense; test: African trypanosomiasis mouse model, in-vivo
Protocol: as §3, §2

T lymphocytes = test: Lymphocyte blastogenesis assay, T lymphocytes (PHA); type: cell-based, human
Protocol: T and B lymphocytes from normal human donors were incubated for 30 minutes at various dose levels of the compounds indicated. The lymphocytes were added in triplicate wells in gentamicin and phytohemagglutinin (PHA) (a T cell mitogen), pokeweed mitogen (PWM) (a B cell mitogen) and allogeneic mononuclear cells (mixed leukocyte cultures; MLC) or media containing the above additives. The lymphocyte blastogenesis assay is described in detail below.
The data are represented as the mean of the three replicates. The results are presented in Charts la(e) (i) and la(e) (ii) (Figs. 1 and 2). […] A reduction of both T lymphocytes' abilities to proliferate was obtained when 100 u.M or greater concentrations of IPA was added to the cell cultures. Proliferative activity of T lymphocytes by 25% at the 30 u.M concentration of IPA in the experiment.
• 1. Mononuclear cells are separated from whole blood by differential centrifugation using a synthetic separation medium, or are thawed from a cryopreserved preparation. The cells are washed and resuspended in media (RPMI - 1640, L-Glutamine 2mM, Herpes Buffer 25mM, Gentamicin 50 ug/ml, Human AB Serum-heat inactivated (56°, 30°) 20%). • 2. A viable cell count is determined. • 3. Cell concentration is adjusted to 2 x 10^6 /ml in media. • 4. The cell suspension is added to wells of a 96-well flat bottom plate in 0.1 ml aliquots (2 x 10^5 cells). • 5. The selected mitogens and/or antigens (in media without serum) are added to the cells in the wells also in 0.1 ml aliquots. • 6. The cultures are incubated for 3-7 days (depending upon the mitogen or antigen) at 37° C in a humidified 5% C02 atmosphere. • 7. Six to eight hours before termination of cultures 0.05 ml (1 µCi) of ^3HTdR sp. act 6.7 Ci/mM (20 µCi/ml stock) is added to each well. • 8. At termination of cultures the cells are harvested onto strips of scintillation-grade fibreglass paper using a multiple sample harvester. • 9. Perforated disks from the fibreglass paper of the harvested cultures are placed each into scintillation vials to which is then added 5 ml of toluene based scintillation cocktail. • 10. The vials are counted in a liquid scintillation counter for one minute where the amount of incorporated ^3HTdR is determined.
net CPM = xCPM of mitogen/antigen cultures - xCPM of media cultures.

H9-HIV-1 cells = test: Cytotoxicity in persistently infected H9-HIV-1 cells, viable cell number; type: cell-based, human; details: 30 u.M and lower; up to 30 days
HIV-1 = test: Experiment la(1): HIV-1 infected 81-66-45 cells; type: cell-based
81-66-45 Cells = test: Cytotoxicity on uninfected 81-66-45 cells, 10 days continuous exposure; type: cell-based; details: read-out: ID50 - The concentration of IPA which kills 50% of the cells
Protocol: The "Percent Dead Cells" are taken from Tables la(d) (iii) and la(d) (v) using the 10-day value, and the therapeutic index have been calculated for each drug concentration. The results of IPA are also graphed in Figures 16 and 17. Cytotoxicity (the dashed line) is calculated as the percent live cells.
The availability of toxicity data collected in the same time frame as required for determination of antiviral effectiveness allowed determination of values for two different cell lines. Figures 16 and 17 illustrate the curves obtained by plotting the cytotoxicity of IPA (as a percent of the control cell viability) versus the percent of inhibition of HIV-1 replication (as a percent of the control titer) when H9 and 81-66-45 cells were tested. The cytotoxicity data obtained with 10 days continuous exposure, using uninfected cells, were used since 10 days was the length of time required to carry out the infectivity test. As is apparent from Tables la-(d) (ii) - la(d) (v), toxicity is much lower when the drug is added to cells for one day and then removed, or when cells are exposed for only 1 or 4 days. It is difficult to mimic in-vivo exposure times, particularly if metabolites are more toxic than the parent compound and are readily cleared in-vivo but not in-vitro.

CC(C)=CCNc1ncnc2c1ncn2[C@@H]1O[C@H](CO)[C@@H](O)[C@H]1O [IPA, N^6-(Δ^2-isopentenyl) adenosine]
Activity, AM-PRO transform-ation (L donovani [1]): + +
Activity, AM in mouse or human mos (L donovani [2]): + +
Activity, AM in mouse or human mos (L major/L mexicana [3]): + +
Activity, mouse/ hamster models (L donovani [4]): +
Activity, mouse/ hamster models (L major/L mexicana [5]): -
activity, EPI (T. cruzi [6]; T. cruzi strain MR): ++(Y,MR, Sonya)
activity, EPI (T. cruzi [6]; T. cruzi strain Sonya): ++(Y,MR, Sonya)
activity, EPI (T. cruzi [6]; T. cruzi strain Y): ++(Y,MR, Sonya)
activity, TRY (T. cruzi [7]; T. cruzi strain Sonya): + (Y,Sonya)
activity, TRY (T. cruzi [7]; T. cruzi strain Y): + (Y,Sonya)
activity, mouse model (T. cruzi [8]; T. cruzi strain Sonya): +
activity, mouse model (T. cruzi [8]; T. cruzi strain Y): ++
activity, procyclic TRY [9]: +
activity, mouse model [10]: + +
T lymphocyte responsiveness (T lymphocytes; 10 µM, third experiment): Increased
T lymphocyte function (T lymphocytes; 1000 µM down to 10 µM, third experiment (Figs. 7 and 8)): reductions
T lymphocyte proliferation (T lymphocytes; 0.1 - 10 µM, first experiment): No effect or an increase
reduction in T lymphocyte function (T lymphocytes; 30 -35 u.M, third experiment): ~25%
T lymphocyte proliferation (T lymphocytes; 30 down to 10 u.M, second experiment (Figs. 3 and 4)): No appreciable reduction
Proliferative activity of T lymphocytes, change (T lymphocytes; 30 u.M, first experiment): 25%
T lymphocytes' abilities to proliferate (T lymphocytes; 100 u.M or greater, first experiment (Figs. 1 and 2)): reduction
cytotoxicity, viable cell number (H9-HIV-1 cells): No cytotoxicity
IC50 (HIV-1; Human immunodeficiency virus 1, from Figures 16 and 17, read-out: IC50 - The concentration of IPA which inhibits the replication of HIV-1 by 50%): 6 µM
IC90 (HIV-1; Human immunodeficiency virus 1, from Figures 16 and 17, read-out: IC90 - The concentration of IPA which inhibits the replication of HIV-1 by 90%): 10 µM
CC50 (81-66-45 Cells): 40 µM
